The values that follow come from patent US20240025906A1 (NEURON23, INC., priority 2022, published 2024).

The test system of test [1] is JAK1/TYK2 pSTAT5 (Tyr694/699) in THP-1 cell line. Nature of the test: IFNa-stimulated JAK1/TYK2 pSTAT5 (Tyr694/699) inhibition cellular assay, AlphaLISA. Type of test: cell-based. The note with it: Homo sapiens; THP-1 cells, IFNa-stimulated, AlphaLISA (Assay B); read-out: Cellular_THP1_IFNa-pSTATS_TYK2. In a few lines: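 An eight-point 6-fold titration of compound (0.04–10000 nM final) is given to THP-1 cells for 1 h before 30 min of IFNa exposure. Phospho-STAT5 is read by AlphaLISA at 615 nm. IC50 values are derived by logistic regression with bottom set to 0 and Hill slope set to −1.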
(In general: Bead proximity is the source of the signal in Alpha formats.)

The target in a further test is T1, TYK2 JH2 (Homo sapiens, UniProt P29597).
T1 construct: purchased DiscoverX (KINOMEscan KdELECT service); host or cells: E. coli BL21-derived (T7 phage display) or HEK-293
T1 sequence (P29597 589-875 limits assumed): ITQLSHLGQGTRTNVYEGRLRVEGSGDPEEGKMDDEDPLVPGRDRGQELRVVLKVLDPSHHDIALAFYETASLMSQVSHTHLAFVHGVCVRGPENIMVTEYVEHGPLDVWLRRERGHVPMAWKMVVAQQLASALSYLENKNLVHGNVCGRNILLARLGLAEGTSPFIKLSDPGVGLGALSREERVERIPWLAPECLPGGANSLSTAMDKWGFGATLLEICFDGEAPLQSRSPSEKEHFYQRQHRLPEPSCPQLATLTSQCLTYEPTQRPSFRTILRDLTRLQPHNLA
In words: TYK2 JH2 binding assay (KINOMEscan KdELECT competitive binding). The note with it: TYK2 JH2 domain, DiscoverX KINOMEscan KdELECT (Assay A); read-out: Biochemical TYK2_DiscoverX_JH2_BND_Kd. A digest of the protocol:
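JH2-domain fragment, expressed as T7 phage tag in BL21-derived E. coli or DNA-tagged from HEK-293, competed with test compound against bead-immobilized biotinylated ligand in binding buffer (0.9% DMSO). 1 h shaking at room temperature; bound kinase eluted with 0.5 μM free ligand and quantified by qPCR. Kd from 11-point 3-fold dilutions.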

For the compound `[2H]C([2H])([2H])Nc1ncc(-c2nc3cc(N4CCO[C@@H](C)C4)ccc3o2)c2cc(NC(=O)[C@H]3C[C@H]3C)ncc12` [Example 440, (1S,2R)-2-methyl-N-(8-((methyl-d3)amino)-5-(5-((S)-2-methylmorpholino)benzo[d]oxazol-2-yl)-2,7-naphthyridin-3-yl)cyclopropane-1-carboxamide], in test [1], the IC50 is at most 500 nM. For the same compound, at TYK2 JH2, the Kd is at most 100 nM.
For `[2H]C([2H])([2H])Nc1ncc(-c2nc3cc(N4CCO[C@H](C)C4)ccc3o2)c2cc(NC(=O)[C@H]3C[C@H]3C)ncc12` [Example 441, (1S,2R)-2-methyl-N-(8-((methyl-d3)amino)-5-(5-((R)-2-methylmorpholino)benzo[d]oxazol-2-yl)-2,7-naphthyridin-3-yl)cyclopropane-1-carboxamide] the same measures were at most 500 nM and at most 100 nM.
On the same counts, the results for `[2H]C([2H])([2H])Nc1ncc(-c2nc3cc(N4CCOCC4)ccc3o2)c2cc(NC(=O)C3(F)CC3)ncc12` [Example 442, 1-fluoro-N-(8-((methyl-d3)amino)-5-(5-morpholinobenzo[d]oxazol-2-yl)-2,7-naphthyridin-3-yl)cyclopropane-1-carboxamide] are at most 500 nM and at most 100 nM.
For `[2H]C([2H])([2H])Nc1ncc(-c2nc3cc(N4CCOCC4)ccc3o2)c2cc(NC(=O)[C@H]3C[C@H]3C)ncc12` [Example 443, (1S,2R)-2-methyl-N-(8-((methyl-d3)amino)-5-(5-morpholinobenzo[d]oxazol-2-yl)-2,7-naphthyridin-3-yl)cyclopropane-1-carboxamide], the IC50 in test [1] was at most 500 nM. For the same compound, the Kd on TYK2 JH2 was at most 100 nM.
On to `CNc1ncc(-c2nc3c(NC(C)=O)cccc3o2)c2cc(NC(=O)C3CC3)ncc12` [Example 444, N-(5-(4-acetamidobenzo[d]oxazol-2-yl)-8-(methylamino)-2,7-naphthyridin-3-yl)cyclopropanecarboxamide], for which, in test [1], the IC50 is at most 500 nM. On TYK2 JH2, the Kd was at most 100 nM.
For `CNc1ncc(-c2nc3cc(-c4nc[nH]n4)ccc3o2)c2cc(NC(=O)C3CC3)ncc12` [Example 445, N-(5-(5-(1H-1,2,4-triazol-3-yl)benzo[d]oxazol-2-yl)-8-(methylamino)-2,7-naphthyridin-3-yl)cyclopropanecarboxamide] the same measures were at most 500 nM and at most 100 nM.
For `CNc1ncc(-c2nc3cc(-n4c(=O)ccn4C)ccc3o2)c2cc(NC(=O)C3CC3)ncc12` [Example 446, N-(5-(5-(2-methyl-5-oxo-2,5-dihydro-1H-pyrazol-1-yl)benzo[d]oxazol-2-yl)-8-(methylamino)-2,7-naphthyridin-3-yl)cyclopropanecarboxamide] the same measures were over 500 nM and at most 100 nM.
For `CNc1ncc(-c2nc3cc(N4CC5COCC(C4)N5C)ccc3o2)c2cc(NC(=O)C3CC3)ncc12` [Example 447, N-(5-(5-(9-methyl-3-oxa-7,9-diazabicyclo[3.3.1]nonan-7-yl)benzo[d]oxazol-2-yl)-8-(methylamino)-2,7-naphthyridin-3-yl)cyclopropanecarboxamide], the IC50 in test [1] was at most 500 nM. Besides, on TYK2 JH2, the Kd was at most 100 nM.
Take `CNc1ncc(-c2nc3cc(C4CCOCC4)ccc3o2)c2cc(NC(=O)C3CC3)ncc12` [Example 448, N-(8-(methylamino)-5-(5-(tetrahydro-2H-pyran-4-yl)benzo[d]oxazol-2-yl)-2,7-naphthyridin-3-yl)cyclopropanecarboxamide]: the IC50 in test [1] was at most 500 nM. The Kd on TYK2 JH2 was at most 100 nM.
On to `CNc1ncc(-c2nc3cc(N4CCOCC4)ccc3o2)c2cc(Nc3cc(C)nc(C)n3)ncc12` [Example 449, N^6-(2,6-dimethylpyrimidin-4-yl)-N^1-methyl-4-(5-morpholinobenzo[d]oxazol-2-yl)-2,7-naphthyridine-1,6-diamine], for which, in test [1], the IC50 was at most 500 nM. Also, the Kd at TYK2 JH2 was at most 100 nM.
On the same counts, the results for `CNc1ncc(-c2nc3cc(N4CCOCC4)ccc3o2)c2cc(NC(=O)NC3CC3)ncc12` [Example 450, 1-cyclopropyl-3-(8-(methylamino)-5-(5-morpholinobenzo[d]oxazol-2-yl)-2,7-naphthyridin-3-yl)urea] are at most 500 nM and at most 100 nM.
For `[2H]C([2H])([2H])Nc1ncc(-c2nc3cc(N4C5CCC4COC5)ccc3o2)c2cc(NC(=O)C3CC3)ncc12` [Example 453, N-(5-(5-(3-oxa-8-azabicyclo[3.2.1]octan-8-yl)benzo[d]oxazol-2-yl)-8-((methyl-d3)amino)-2,7-naphthyridin-3-yl)cyclopropanecarboxamide] the same measures were at most 500 nM and at most 100 nM.
For `[2H]C([2H])([2H])Nc1ncc(-c2nc3cc(OCC4CC4)ccc3o2)c2cc(NC(=O)C3CC3)ncc12` [Example 454, N-(5-(5-(cyclopropylmethoxy)benzo[d]oxazol-2-yl)-8-((methyl-d3)amino)-2,7-naphthyridin-3-yl)cyclopropanecarboxamide] the same measures were at most 500 nM and at most 100 nM.
`[2H]C([2H])([2H])Nc1ncc(-c2nc3cc(N4C5CCC4COC5)ccc3o2)c2cc(NC(=O)[C@H]3C[C@H]3C)ncc12` [Example 455, (1S,2R)—N-(5-(5-(3-oxa-8-azabicyclo[3.2.1]octan-8-yl)benzo[d]oxazol-2-yl)-8-((methyl-d3)amino)-2,7-naphthyridin-3-yl)-2-methylcyclopropane-1-carboxamide]: the IC50 in test [1] was at most 500 nM. In addition, the Kd at TYK2 JH2 was at most 100 nM.
On the same counts, the results for `[2H]C([2H])([2H])Nc1ncc(-c2nc3cc(OCC4CC4)ccc3o2)c2cc(NC(=O)[C@H]3C[C@H]3C)ncc12` [Example 456, (1S,2R)—N-(5-(5-(cyclopropylmethoxy)benzo[d]oxazol-2-yl)-8-((methyl-d3)amino)-2,7-naphthyridin-3-yl)-2-methylcyclopropane-1-carboxamide] are at most 500 nM and at most 100 nM.
On the same counts, the results for `CCNc1ncc(-c2nc3cc(N4CC5CN(C)CC(C4)O5)ccc3o2)c2cc(NC(=O)C3CC3)ncc12` [Example 457, N-(8-(ethylamino)-5-(5-(7-methyl-9-oxa-3,7-diazabicyclo[3.3.1]nonan-3-yl)benzo[d]oxazol-2-yl)-2,7-naphthyridin-3-yl)cyclopropanecarboxamide] are at most 500 nM and at most 100 nM.
`CCNc1ncc(-c2nc3cc(N4CCOCC4)ccc3o2)c2cc(NC(=O)C3CC3)ncc12` [Example 458, N-(8-(ethylamino)-5-(5-morpholinobenzo[d]oxazol-2-yl)-2,7-naphthyridin-3-yl)cyclopropanecarboxamide]: the IC50 in test [1] was at most 500 nM. In addition, the Kd at TYK2 JH2 was at most 100 nM.
On to `CCNc1ncc(-c2nc3cc(OC)ccc3o2)c2cc(NC(=O)C3CC3)ncc12` [Example 459, N-(8-(ethylamino)-5-(5-methoxybenzo[d]oxazol-2-yl)-2,7-naphthyridin-3-yl)cyclopropanecarboxamide], for which the IC50 in test [1] is at most 500 nM. The Kd on TYK2 JH2 was at most 100 nM.
For `CNc1ncc(-c2nc3nc(C)ccc3o2)c2cc(NC(=O)C3CC3)ncc12` [Example 460, N-(8-(methylamino)-5-(5-methyloxazolo[4,5-b]pyridin-2-yl)-2,7-naphthyridin-3-yl)cyclopropanecarboxamide] the same measures were at most 500 nM and at most 100 nM.
